Experiment: Human HepG2 cell viability assay in 384 well format
Format: toxicity, cell-based
Set-up: dose 125 nL, time 70.5 hour; concentration not given beside the values
Settings: HepG2 cells, read-out: Inhibition

| SMILES | cytotoxicity at 70.5 h [%] |
| --- | --- |
| CSCCC(=O)N1CCC(c2nccn2Cc2cscn2)CC1 | -5.4 |
| Cc1cc(C)n(CC(=O)N(CC2CN(C)CCO2)c2nccs2)n1 (centres undefined) | -4.83 |
| CCN(CC)S(=O)(=O)c1cc2c3c(c1)c(C)cc(=O)n3CCC2 | 36 |
| CCOC1CC2(CCN(C(=O)Cc3ccccn3)CC2)C1 | 18.1 |
| CC1=C(C(=O)N(C)Cc2noc3c2CCCC3)C(C)NC(=O)N1 (centres undefined) | -0.0225 |
| COC(=O)c1ccc(N2CCN(CCS(C)(=O)=O)C(C)C2)cc1 (centres undefined) | -3.48 |
| N#Cc1ccc(NCCCOCC2CCCO2)c(F)c1 (centres undefined) | 2 |
| CC(=O)N1CCC(Cc2cnc(-c3c(C)nn(C)c3C)cn2)CC1 | -0.949 |
| O=C(Nc1ccccc1OCCc1ccccn1)N1CCOCC(O)C1 (centres undefined) | -8.87 |
| Cc1ccsc1CN1CCC(c2cc(C(C)C)n[nH]2)CC1 | -3.28 |
| CCS(=O)(=O)CC(=O)N1CCCC(c2noc(C(C)C)n2)C1 (centres undefined) | 8.9 |
| O=S(=O)(c1cccnc1)N1CCN(CC(O)c2ccccc2)CC1 (centres undefined) | -3.21 |
| COc1ccc(Cl)cc1CN(C)C(=O)CN1C(=O)CCC1C (centres undefined) | -9.27 |
| CC(C)(Oc1ccc(C(N)=O)cc1)C(=O)N(CCC#N)C1CC1 | -1.36 |
| Cc1c(Br)c(C(F)F)nn1C(C)C(=O)O (centres undefined) | -10.2 |
| O=C(Nc1cccnc1)c1noc2c1CN(S(=O)(=O)C1CC1)CC2 | -12.1 |
| CC(C)(C)NC(=O)C1CSCN1C(=O)CCc1ccco1 (centres undefined) | -0.786 |
| Cc1ncc2c(n1)CCCC2NC(=O)c1ccccc1Cn1cncn1 (centres undefined) | 18.1 |
| O=C(O)[C@]12CCCN(Cc3ccncc3)[C@@H]1CCN(c1cnccn1)C2 | 8.46 |
| CNc1cc(-c2ccc(COCCN)cc2)c2cc[nH]c2n1 | -13.6 |
| COc1cccc2c1OCC(CNC(=O)CNC(N)=O)C2 (centres undefined) | -4.9 |
| CCSCCNC(=O)C(c1cccc(C)c1)N(C)C (centres undefined) | 35.5 |
| Cc1occc1C(=O)N1C[C@@H](C(=O)NCc2ccco2)C[C@H]2OCC[C@H]21 | -10.4 |

| SMILES | cytotoxicity at 70.5 h [%] |
| --- | --- |
| Cc1ccsc1C(O)CNC(=O)Cc1ccc(F)cc1 (centres undefined) | 25 |
| CNC(=O)[C@@]12CCO[C@@H]1CCN(S(=O)(=O)c1ccccc1F)C2 | -13.3 |
| O=C(c1cc(-c2cccs2)cs1)N1CCOCC1 | -8.23 |
| O=C(CC1CC1)N1CC[C@@H]2[C@H](CC1)N(Cc1cccnc1)CCS2(=O)=O | 5.01 |
| CN(C)CC1(O)CCCN(C(=O)c2cnc(-c3ccccn3)nc2)C1 (centres undefined) | -3.36 |
| CCn1nc(CC(C)C)cc1C(=O)N1CCOCC(O)C1 (centres undefined) | -2.68 |
| CN(C)CCOCC1CN(Cc2ccccn2)Cc2nnn(C)c21 (centres undefined) | 0.965 |
| Cc1cccnc1CN1CCC(c2nnc(Cn3cccn3)n2C)CC1 | -7.96 |
| O=C(CCc1nc2cccnc2[nH]1)Nc1ccc2c(c1)NC(=O)CO2 | 8.55 |
| O=C(NCCCn1cncn1)N1CCCCCC1 | 1.12 |
| CC(C)(C)CNC(=O)c1ccc(C(=O)O)cn1 | 23.3 |
| COCCC(=O)N1CCCC2(CCC(=O)N(CCc3c[nH]cn3)C2)C1 (centres undefined) | -5.35 |
| CCN(CC1CCCO1)C(=O)Nc1cccc(Cl)c1OC (centres undefined) | 24.1 |
| Cc1ccc(C(=O)N2CC(Oc3ccccc3C)C2)s1 | -12.1 |
| c1csc(-c2noc(CCCNC3CCc4ncnn4C3)n2)c1 (centres undefined) | -4.28 |
| CN(C)CCN1CCN(C(=O)c2ccn(C)c(=O)c2)CC1 | -11.6 |
| Cc1nn(C)c(C)c1CC(=O)N1CCCC(CNS(C)(=O)=O)C1 (centres undefined) | -0.898 |
| CCOC(=O)NCc1nn(CCN2CCCC2)c(=O)c2ccccc12 | 1.9 |
| O=C(O)c1cc(-c2ccncc2)cc(S(=O)(=O)N2CCCCCC2)c1 | -18.9 |
| Cc1nn(C)c(N2CCOCC2)c1CNCc1ccoc1C | -11.3 |
| O=C(Nc1ccccc1)c1n[nH]c(-n2cnnc2)n1 | -2.23 |
| OC1(c2ccc(F)cc2)CCN(Cc2ccccc2N2CCCC2)CC1 | 52.6 |
| Cc1n[nH]c(C2CN(C(=O)c3cc(C4CC4)on3)CCO2)n1 (centres undefined) | 17 |

| SMILES | cytotoxicity at 70.5 h [%] |
| --- | --- |
| CN(C)c1nc(N2CCCC2)nc2c1CCN(C(=O)c1ccoc1)CC2 | 0.617 |
| Cc1cn2c(n1)CCC(NC(=O)c1ccc(S(C)(=O)=O)o1)C2 (centres undefined) | 6.89 |
| C[C@@H]1C(=O)NC[C@H]2CN(CCc3ccccc3)C[C@H]21 | -0.303 |
| CC(=O)c1ccc(C(=O)NCc2ccnc(N(C)C)n2)cc1 | 5.65 |
| CN(CC(=O)N1CCCC1c1ccccn1)Cc1ccccc1 (centres undefined) | -6.16 |
| CN(C)CCC1CCCCN1Cc1cnc(-c2ccccn2)nc1 (centres undefined) | -3.63 |
| CC(C(=O)Nc1cccc(C(F)(F)F)c1)N(C)CCN1CCOCC1 (centres undefined) | -8.82 |
| CCN(c1ccc(C(=O)NCc2ccnc(C)n2)cc1)C(C)C | -8.68 |
| COc1ccc(CNC(=O)Nc2cccnc2N2CCCC2)cc1 | 20.6 |
| CCN1CCN(C)C2(CCN(Cc3cccc(C)n3)CC2)C1=O | -9.88 |
| COc1cccc(C2CCN(c3ccc4cc[nH]c4n3)C2)c1OC (centres undefined) | 1.26 |
| Cc1cc(C)cc(N2CCN(Cc3cccnc3)CC2=O)c1 | -7.86 |
| Cc1ccc2c(c1)SCC(=O)N2CC(=O)N1CCCC1c1cc(C)on1 (centres undefined) | -1.98 |
| Cc1ccc(C)c(NC(=O)C(C)N2CCCN(c3nccs3)CC2)c1 (centres undefined) | -6.54 |
| CO[C@H]1CN(S(=O)(=O)c2ccc(F)cc2)C[C@@]12CCCO2 | 36.6 |
| CCN1CCOCC12CCN(C(=O)Cc1cccs1)CC2 | -8.5 |
| CCc1cnc(N2CC[C@H]3[C@@H]2CCC(=O)N3c2cccnc2)nc1 | -7.03 |
| O=C(C(CNCc1ccccc1O)c1ccccc1)N1CCOCC1 (centres undefined) | -2.58 |
| O=C(NC1CCS(=O)(=O)C1)c1sccc1-c1ccc(F)cc1 (centres undefined) | -7.53 |
| CS(=O)(=O)c1cnc(CC2CC2)nc1C1CCCNC1 (centres undefined) | 19.7 |
| CN1CCOC(CNCc2csc(C3CCCC3)n2)C1 (centres undefined) | -1.7 |
| Cc1nc(C#N)c(N2CCC(c3nc(-c4ccccc4)no3)CC2)o1 | -4.24 |
| c1ccc(CCNc2cccc(C3CCCNC3)n2)cc1 (centres undefined) | 6.58 |

| SMILES | cytotoxicity at 70.5 h [%] |
| --- | --- |
| Cc1nc(CN2CCCC(c3nc(C)n4c(C)c(C)sc34)C2)co1 (centres undefined) | 21 |
| COCCN1CCCC(Cc2ccc(N3CCOCC3)nn2)C1 (centres undefined) | -7.53 |
| CCN(CC)CC(=O)N1CCCCC1c1nc(C)cs1 (centres undefined) | -2.06 |
| CCc1cnc(N)nc1NC(C)c1ccc(C)c(C)c1 (centres undefined) | -0.902 |
| Cc1cccc(OC2CCN(c3ncc(C#N)cc3Cl)CC2)n1 | -6.22 |
| Cc1[nH]ncc1CCCNC(=O)N1CCCC(c2nncn2C)C1 (centres undefined) | -1.78 |
| O=C(c1cccc2c1OCCO2)N1CCCC1c1noc(C2CC2)n1 (centres undefined) | -2.14 |
| O=C(O)C1(Cc2cc(-c3ccccc3F)no2)CCOCC1 | -10.6 |
| Cn1c(CCN2CCN(c3ccc(O)cc3)CC2)nc2ccccc21 | 14.6 |
| CCn1cnnc1C1CCN(C(=O)c2ccccc2F)CC1 | -7.26 |
| CC(=O)Nc1nc(C2CCN(C(C)=O)CC2)cs1 | -22 |
| COc1ncccc1CNC(=O)C1CC(=O)N(C)C1 (centres undefined) | 0.32 |
| O=C(N1CCCC1)N1CCc2c(CNc3ncccn3)cncc2C1 | -1.33 |
| CC(C)c1cc(C(=O)N2CCNCC2C(=O)NCc2ccncc2)on1 (centres undefined) | -2.19 |
| Cc1noc(C)c1-c1cncc(C2CCCN2Cc2cc[nH]n2)n1 (centres undefined) | -3.25 |
| Cc1ccc(N2CCN(C(=O)CCc3n[nH]c(C)n3)CC2=O)cc1 | -8.56 |
| CN(C(=O)CCC(F)(F)F)c1cccc2ncccc12 | 42.6 |
| Cc1ccc2cc(C(=O)N3CCN(C(=O)c4ccoc4)CC3)[nH]c2c1 | 8.19 |
| CC(C)NC(=O)C(C)NC(=O)N1CCN(c2ccc(Cl)cc2)CC1 (centres undefined) | 19 |
| N#CCCN(CC1CCOC1)S(=O)(=O)c1c(F)cccc1Cl (centres undefined) | -6.61 |
| COc1ccc(Cc2ncc3c(n2)CN(C(=O)C(C)(C)OC)C3)cc1 | -6.62 |
| COc1cc(CN(C)C(=O)NCCNC(=O)C2CC2)ccc1SC | -16 |
| CC(C)c1noc(-c2ccc(NC(=O)NCC(O)C(C)C)cc2)n1 (centres undefined) | -7.09 |

| SMILES | cytotoxicity at 70.5 h [%] |
| --- | --- |
| CN1CCC(C(=O)NCc2nncn2-c2ccccc2)CC1=O (centres undefined) | -16.9 |
| CCc1nnc(Nc2cccc(C3CCN(CCO)CC3)n2)s1 | 7.17 |
| Cn1nc(Br)c2c(NCCCS(N)(=O)=O)ncnc21 | -22.7 |
| Cn1cc(CCNC(=O)N2CCCC(c3nncn3C)C2)cn1 (centres undefined) | -4.93 |
| CCN(Cc1ccco1)C(=O)Nc1cc(C(F)(F)F)c[nH]c1=O | 11.4 |
| Cc1nc(CCC(=O)NC2CCC2)cc(C2CCCNC2)n1 (centres undefined) | -9.96 |
| CN(c1ccc(CNc2c(Cl)cccc2C#N)cc1)S(C)(=O)=O | -1.4 |
| CCc1ccc(CN(C(=O)CCn2cc(S(N)(=O)=O)cn2)C2CC2)cc1 | -2.81 |
| Cc1ccc(S(=O)(=O)NC(=O)CCC2CCCO2)cc1 (centres undefined) | 0.693 |
| CS(=O)(=O)N1CCC(NC(=O)COc2ccc(Cl)cc2)CC1 | -4.42 |
| Cc1cnn(CCNCc2cc(-c3ccccc3)no2)c1 | 7.59 |
| CS(=O)(=O)c1cccc(OCC(=O)N2CCCC2c2ccccc2Cl)c1 (centres undefined) | -2.69 |
| O=S(=O)(c1ccc(F)c(F)c1)n1cc(Cl)cn1 | -6.91 |
| Cc1nn(C)c(C)c1CN1CCCC1c1nccc(CN(C)C)n1 (centres undefined) | -0.0769 |
| CN(C)C(=O)CN1CCOCC2(CCN(c3ncc(F)cn3)CC2)C1 | -6.93 |
| CCn1nnc2c1C(COC)CN(Cc1ccco1)C2 (centres undefined) | 39.7 |
| CC(C)(C)CC(=O)N1CC[C@@H]2[C@H](CC1)N(S(C)(=O)=O)CCS2(=O)=O | -5.98 |
| O=C(NCc1cccnc1)N1CCc2ncnc(C3CC3)c2CC1 | 5.6 |
| Fc1ccc(CN2CCCn3nnc(COCC4CC4)c3C2)cc1 | 16.6 |
| COCCN1CCC(CNC(=O)c2c[nH]c(=O)c(Cl)c2)CC1 | -10.5 |
| COc1cccc(-c2cc(NCc3nc(C)cs3)n(C)n2)c1 | -9.85 |
| Cn1nc(CC(C)(C)C)cc1NC(=O)c1ccc2[nH]nnc2c1 | 19 |
